# In patent publication US20040092491A1, “Method of treating sepsis-induced ARDS” (The Research Foundation of State University of New York, priority 2002, published 2004):
# “Also recorded” adds a separate entry of the source. Where a name gives a salt, the structure may show the parent alone.
# What was measured:
# neutrophil elastase [1] = experiment: Porcine SMA+FC model: BALF elastase activity; design: species or system pigs; conditions: pig, in vivo
# Text: (§4) A sepsis-induced ARDS porcine model was developed. […] In addition, the protocol included a 3-day termination period, due to the severity of the ARDS associated with this model and the desire to obtain clinically relevant end-point data on all animals.
# lung tissue [2] = experiment: Rat CLP model: lung histology; format: in vivo, Sprague-Dawley rats
# Procedure: (§1) Surgical Procedure: Male Sprague-Dawley rats weighing between 250-300 g were acclimatized to the laboratory environment for one week prior to surgery. Free access to food and water was available for this time period. Rats were anesthetized with intraperitoneal (IP) Ketamine (90 mg/kg)/Xylazine (10 mg/kg ). Sepsis was produced using a modification of the cecal ligation and puncture (CLP) technique described by Chaudry et al. After the abdominal fur was shaved, a 2 cm midline incision was made through the skin and peritoneum. The cecum was identified and withdrawn through the incision. The avascular portion of the mesentery was sharply incised and the cecum was ligated just below the ileocecal valve with a 3-0 silk suture, so that intestinal continuity was maintained. Using an 18 gauge needle, the cecum was perforated in two locations on the antimesenteric surface and was gently compressed until feces were extruded to ensure patency of the holes. The bowel was then returned to the abdomen and the incision was closed in 2 layers using 3-0 Prolene™ for the muscle and 2-0 silk for the skin. Each rat received 10 cc physiological saline subcutaneously immediately after the procedure and at 12 and 24 hours post-surgery. The rats were allowed to recover with water and food provided ad libitum throughout the remainder of the study.
# (§2) Experimental Protocol: Rats were randomly divided into 5 groups: GROUP 1) Sham CLP+2% solution of carboxymethylcellulose (CMC; vehicle for COL-3) in saline-midline laparotomy with cecum exposed and mesentery sharply incised plus oral gavage at the time of surgery with CMC (n=6); GROUP 2) Sham CLP+COL-3 (Collagenex Pharmaceutical, Newtown, Pa.)-midline laparotomy with cecum exposed and mesentery sharply incised plus oral gavage at the time of surgery with COL-3 (30 mg/kg, n=6); GROUP 3) CLP+CMC-midline laparotomy with CLP plus oral gavage at time of surgery with CMC (n=10); GROUP 4) CLP+COL-3 single dose [SD]-midline laparotomy with CLP plus oral gavage at the time of surgery with COL-3 (30 mg/kg, n=9); GROUP 5) CLP+COL-3 multiple dose [MD]-midline laparotomy with CLP plus oral gavage at the time of surgery and at 24 hours post CLP with COL-3 (30 mg/kg each administration for a total dose of 60 mg/kg, n=15). Rats were followed for 168 hours (7 days) with survival defined as hours post-CLP and survival time of each rat recorded. Rats were sacrificed at 168 hours or immediately following death. At necropsy, the left lung was excised and its bronchus cannulated. The lung was inflated to a pressure of 4 cmH2O with 10% formalin. The cannula was clamped and the lung stored in formalin at room temperature for 24 hours. The tissue was blocked in paraffin and serial sections made for staining with hematoxylin and eosin. Additionally, the remaining paraffin section of fixed lung was used for immunohistochemical determination of MMP-2 and MMP-9.
# Histology: The lung tissue in each slide preparation was evaluated without knowledge of the treatment group from which it came. The slides were reviewed at low magnification for an overview to exclude sections containing bronchi, connective tissue, large blood vessels, and areas of confluent atelectasis, so that only regions reflecting the degree and stage of parenchymal injury would be evaluated. The areas of the slides which were not excluded were assessed at high magnification (400×) in the following manner. Five high power fields (HPF) were randomly sampled. […] Specifically, alveolar wall thickening, defined as greater than two cell layers thick, was graded as “0” (absent) or “1” (present) in each field. Intra-alveolar edema fluid, defined as homogenous or fibrillar proteinaceous staining within the alveoli, was graded as “0” (absent) or “1” (present) in each field. A total score/5HPF for alveolar wall thickening and intra-alveolar edema fluid was recorded for each animal. […]
# lung tissue [3] = experiment: Porcine SMA+FC model: morphometric analysis of lung tissue and lung water; format: in vivo, pigs
# Text: as §4
# MMP-9 [4] = molecular target: T1, MMP-9 (Sus scrofa, UniProt A0A287AZD5); experiment: Porcine SMA+FC model: MMP-9 in BALF; design: species or system pigs; conditions: pig, in vivo
# T1 construct: from tissue; host or cells: pig bronchoalveolar lavage fluid (BALF)
# Text: as §4
# MMP-2 = experiment: Rat CLP model: lung tissue MMP-2 level by immunohistochemistry; format: in vivo, Sprague-Dawley rats
# Procedure: as §2
# (§3) Lung tissue MMP-2 and MMP-9 levels: The levels of alveolar tissue MMP-2 and MMP-9 was assessed by immunohistochemical analysis as described elsewhere. Briefly, four micrometer formalin fixed paraffin sections were treated with xylene to remove paraffin and hydrated. The paraffin sections were treated with 0.4% pepsin for 45 minutes at +37° C. For immunostaining VECTASTAIN™ Rabbit ABC Elite Kit (Vector Laboratories, Burlingame, Calif.) was used according to manufactures instructions. […]
# MMP-9 [5] = experiment: Rat CLP model: lung tissue MMP-9 level by immunohistochemistry; format: in vivo, Sprague-Dawley rats
# Procedure: as §2, §3
# interleukin-6 = experiment: Porcine SMA+FC model: interleukin-6 concentration in BALF; design: species or system pigs; conditions: pig, in vivo
# Text: as §4
# IL-10 = experiment: Porcine SMA+FC model: IL-10 concentration in BALF; design: species or system pigs; conditions: pig, in vivo
# Text: (§5) In addition, the protocol included a 3-day termination period, due to the severity of the ARDS associated with this model and the desire to obtain clinically relevant end-point data on all animals.
# [6] = tested on: sepsis-induced ARDS (SMA+FC); experiment: Porcine fecal clot + SMA clamping sepsis-induced ARDS model: pulmonary function
# pulmonary edema = experiment: Rat CLP model: lung water (W/D weight ratio); format: in vivo, Sprague-Dawley rats
# Procedure: as §2
# Lung Water: Representative tissue samples from the right lung were sharply dissected free of nonparenchymal tissue. Samples were placed in a dish and weighed, dried in an oven at 65° C. for 24 h and weighed again. This was repeated until there was no weight change over a 24-h period at which time the samples were determined to be dry. Lung water was expressed as a wet to dry weight ratio (W/D).
# [7] = Porcine SMA+FC model: BALF protein concentration; design: species or system pigs; conditions: pig, in vivo
# Text: as §5
# Interleukin-1 = experiment: Porcine SMA+FC model: Interleukin-1 concentration in BALF; format: in vivo, pigs; conditions: between groups
# Text: as §5
# [8] = Porcine SMA+FC model: blood COL-3 concentration
# [9] = tested on: sepsis-induced ARDS (cecal ligation and puncture); experiment: Rat cecal ligation and puncture (CLP) model of sepsis-induced ARDS: survival; format: in vivo, Sprague-Dawley rats; conditions: for Mortality at 168 hours (7 days): CLP+CMC 70%
# Procedure: as §1, §2
# Statistical analysis: Survival rates were evaluated using the Kaplan and Meier method and the significance was determined by the generalized Wilcoxon method. Differences between groups were analyzed by one-way analysis of variance. When the F ratio indicated significance, a Newman-Keul test was used to identify individual differences. A p value less than 0.05 was considered significant. Correlations between COL-3 concentration and survival, COL-3 concentration and MMP-2 and MMP-9 levels and levels of MMP-2 and MMP-9 and survival were determined by simple linear regression analysis.
# IL-8 = experiment: Porcine SMA+FC model: IL-8 concentration in BALF; design: species or system pigs; conditions: pig, in vivo
# Text: as §4
# neutrophil elastase [10] = conditions: LPS-induced acute lung injury, guinea pig; cited from earlier work
# [11] = single dose of two 100 mg minocycline HCl tablets, adult humans; cited from earlier work
# [12] = 250 mg every six hours over a twenty-four hour period; cited from earlier work
# microbes = conditions: based on steady-state pharmacokinetics; cited from earlier work
# [13] = morphometric analysis of lung tissue
# [14] = CLP+COL-3 (MD) vs CLP+CMC and CLP+COL-3 (SD)
# [15] = COL-3 administration, dose dependent fashion, vs CLP+CMC
# T1 sequence (A0A287AZD5 19-708): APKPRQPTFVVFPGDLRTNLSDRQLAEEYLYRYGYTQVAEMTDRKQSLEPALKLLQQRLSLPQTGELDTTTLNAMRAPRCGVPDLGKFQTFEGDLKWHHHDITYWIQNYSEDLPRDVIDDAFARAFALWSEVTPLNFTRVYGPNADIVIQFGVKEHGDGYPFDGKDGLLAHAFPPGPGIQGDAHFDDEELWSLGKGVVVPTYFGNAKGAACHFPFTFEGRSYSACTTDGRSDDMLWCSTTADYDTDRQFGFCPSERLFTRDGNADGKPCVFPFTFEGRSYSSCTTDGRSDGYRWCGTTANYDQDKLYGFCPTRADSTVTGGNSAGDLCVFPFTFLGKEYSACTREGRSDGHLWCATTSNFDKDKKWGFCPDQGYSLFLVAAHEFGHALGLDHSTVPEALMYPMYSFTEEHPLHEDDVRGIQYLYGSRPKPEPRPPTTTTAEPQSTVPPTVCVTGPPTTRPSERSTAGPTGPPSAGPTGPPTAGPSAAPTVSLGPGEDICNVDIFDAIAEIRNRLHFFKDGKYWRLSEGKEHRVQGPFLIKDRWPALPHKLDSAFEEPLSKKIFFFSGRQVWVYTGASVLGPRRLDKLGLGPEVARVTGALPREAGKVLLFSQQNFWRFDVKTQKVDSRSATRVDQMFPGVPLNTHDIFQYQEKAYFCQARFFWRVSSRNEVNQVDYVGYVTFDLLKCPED
structure (smiles),measurement,setting,value
"NC(=O)C1=C(O)C[C@@H]2C[C@@H]3Cc4cccc(O)c4C(=O)C3=C(O)[C@]2(O)C1=O [COL-3, 6-demethyl-6-deoxy-4-de(dimethylamino)tetracycline]",Neutrophil elastase in BALF,neutrophil elastase [1],inhibited
same,Reduction in BALF elastase activity,neutrophil elastase [1],87%
same,Number of neutrophils sequestered in the lung,lung tissue [2]; CLP+COL-3 (MD) vs CLP+CMC,no significant differences
same,Number of thickened alveolar walls,lung tissue [2]; CLP+COL-3 (MD) vs CLP+CMC,significantly reduced
same,Intra-alveolar edema fluid,"lung tissue [2]; CLP+COL-3 (MD), second dose, vs CLP+CMC",significant reduction
same,Intra-alveolar edema fluid,lung tissue [2]; CLP+COL-3 (SD) vs CLP+CMC,"reduced in the CLP+COL-3 (SD) group as compared to the CLP+CMC group, but was not statistically significant"
same,Number of neutrophils sequestered in the lung,lung tissue [2]; CLP+COL-3 (SD) vs CLP+CMC,no significant differences
same,Number of thickened alveolar walls,lung tissue [2]; CLP+COL-3 (SD) vs CLP+CMC,significantly reduced
same,Number of neutrophils sequestered in the lung,"lung tissue [3]; SMA+FC and SMA+FC+COL-3 groups vs Control Group, morphometric assessment",increased equally
same,Decrease in hyline membranes,lung tissue [3]; [13],94%
same,Reduction in alveolar edema,lung tissue [3]; [13],62%
same,Decrease in lung water,"lung tissue [3]; pig, in vivo",41%
same,MMP-9 in BALF,MMP-9 [4],inhibited
same,Lung tissue level of MMP-2,MMP-2; [14],further reduction
same,Lung tissue level of MMP-2,MMP-2; CLP+COL-3 (SD) vs CLP+CMC,significantly reduced
same,Alveolar tissue level of MMP-2,MMP-2; [15],significantly reduced
same,Lung tissue level of MMP-9,MMP-9 [5]; [14],further reduced the level of MMP-9 to Sham CLP levels; also recorded: significantly reduced
same,Lung tissue level of MMP-9,MMP-9 [5]; CLP+COL-3 (SD) vs CLP+CMC,"reduced MMP-9 levels compared to the CLP+CMC group, but was not statistically significant"
same,Alveolar tissue level of MMP-9,MMP-9 [5]; [15],significantly reduced
same,Increase in interleukin-6 concentration in BALF,interleukin-6,blocked the increase
same,Increase in IL-10 concentration in BALF,IL-10,blocked the increase
same,Improvement in A-a gradient,[6]; SMA+FC+COL-3 vs SMA+FC group,64%
same,Improvement in lung plateau pressure,[6]; SMA+FC+COL-3 vs SMA+FC group,52%
same,Improvement in pulmonary compliance,[6]; SMA+FC+COL-3 vs SMA+FC group,344%
same,Increase in PaO2/FiO2 ratio,[6]; SMA+FC+COL-3 vs SMA+FC group,204%
same,Reduction in pulmonary shunt fraction,[6]; SMA+FC+COL-3 vs SMA+FC group,80%
same,Development of ARDS,"[6]; lung compliance, PaO2/FiO2 ratio, shunt fraction, lung water, histology not significantly different from Control Group",completely prevented
same,Lung water (W/D weight ratio),"pulmonary edema; CLP+COL-3 (MD), second dose at 24 hours post CLP",reduced edema to Sham CLP levels; also recorded: further reduced
same,Lung water (W/D weight ratio),pulmonary edema; CLP+COL-3 (SD) vs CLP+CMC,significantly reduced
same,Lung water or edema,"pulmonary edema; COL-3 administration, dose dependent manner, vs CLP+CMC",significantly reduced
same,Decrease in bronchoalveolarlavage fluid (BALF) protein concentration,[7],51%
same,Interleukin-1 concentration,Interleukin-1,not significantly different
same,Blood COL-3 concentration,[8]; Day 1,3.1 ± 0.3 µg/mL
same,Blood COL-3 concentration,[8]; Day 2,4.9 ± 1.0 µg/mL
same,Blood COL-3 concentration,[8]; Day 3,3.1 ± 1.0 µg/mL
same,Seven day survival rate,"[9]; CLP+COL-3 (MD), repeat dose at 24 hours post CLP, p<0.05 vs CLP+CMC and CLP+COL-3 (SD)",enhanced survival benefit
same,Mortality at 168 hours (7 days),[9]; CLP+COL-3 (MD): 30 mg/kg at surgery and at 24 hours post CLP,33%
same,Seven day survival rate,"[9]; CLP+COL-3 (SD) vs CLP+CMC, p<0.05",significant improvement in survival
same,Mortality at 168 hours (7 days),[9]; CLP+COL-3 (SD): single prophylactic dose 30 mg/kg oral gavage at surgery,54%
same,Survival with delayed administration,[9]; COL-3 given as much as 12 hours following CLP,significantly improve survival
same,Survival of sham animals,"[9]; Sham CLP+COL-3, 30 mg/kg oral gavage, 168 hours",all survived
same,Increase in IL-8 concentration in BALF,IL-8,blocked the increase
"CC(C)(C)C(=O)Oc1ccc(S(=O)(=O)Nc2ccccc2C(=O)NCC(=O)O)cc1 [ONO-5046, N-[2-[4-(2,2-dimethylpropionyloxy)-phenylsulfonylamino]benzoyl]aminoacetic acid]",Neutrophil elastase activity,neutrophil elastase [10],inhibits
CN(C)c1ccc(O)c2c1C[C@H]1C[C@H]3[C@H](N(C)C)C(O)=C(C(N)=O)C(=O)[C@@]3(O)C(O)=C1C2=O [minocycline HCl],Average minocycline serum level,[11],2.24 µg/mL
CN(C)[C@@H]1C(O)=C(C(N)=O)C(=O)[C@@]2(O)C(O)=C3C(=O)c4c(O)cccc4[C@@](C)(O)[C@H]3C[C@@H]12 [tetracycline HCl],Peak plasma concentration,[12],approximately 3 μg/ml
"CN(C)[C@@H]1C(O)=C(C(N)=O)C(=O)[C@@]2(O)C(O)=C3C(=O)c4c(O)cccc4[C@@](C)(O)[C@H]3C[C@@H]12 [tetracycline, Tetracycline]",Plasma antibiotic threshold level,microbes,0.5 µg/mL
